Patent publication US7820665B2, “Imidazopyridazine inhibitors of PI3 kinase for cancer treatment” (Amgen Inc., priority 2007, dated 2010)

What was measured:
[1] = tested on: Akt phosphorylation at Ser473 in HCT116 cells; test: Cell-based phospho-AKT Ser473 assay (HCT116 Cell), MSD sandwich immunoassay; settings: Homo sapiens, HCT-116, 2 h, read-out: HCT116 Cell IC50, HCT116 cells, 2 h compound, IGF-1 stimulation, pAkt Ser473;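 also: IGF-1 added at 100 ng/mL for 15 min after compound treatment, electrochemiluminescent readout of phospho-Akt, DMSO-only wells define maximum signal, IC50 reflects inhibition of phosphorylation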
Description: This assay determines the ability of a compound to inhibit the phosphorylation of Serine 472 in Akt using a MSD based sandwich immunoassay (Meso Scale Detection, Meso Scale Discovery (MSD), Gaithersburg, Md.). HCT116 human colon carcinoma cell lines can be grown in McCoy's 5A growth medium (GIBCO, Carlsbad, Calif.) containing 10% FBS (GIBCO, Carlsbad, Calif.) and X1 Penicillin-streptomycin-glutamine (GIBCO, Carlsbad, Calif.). Prior to the assay, cells can be detached from the culture flask with trypsin, and re-suspended in complete media to give a final concentration of 1.6×10^5 cells per mL. Aliquots (100 μl) of the HCT116 cell suspension can be seeded into each well of a 96 well tissue culture plate to give a final density of 16,000 cells per well. Cells can then be incubated overnight at 37° C.
The following day the cells can be treated with serially diluted test compounds and incubated for 2 hours at 37° C. The culture media on the HCT 116 cells can be replaced with 189 μL McCoys media, supplemented with 0.1% BSA (ICN Biomedicals, Inc., Costa Mesa, Calif.). […] Aliquots (1 μL) of serially-diluted compounds can be transferred to 96 well tissue culture plates containing the HCT 116 cells. […] As a maximum response control, wells can contain 0.5% DMSO in place of compound. The plates can be mixed at 700 rpm for 2 min to ensure even distribution of the test compound and incubated for 2 hours at 37° C. Cells can then be stimulated with insulin-like growth factor 1 (Sigma, St Louis, Mo.) at final concentration of 100 ng/mL for 15 minutes at 37° C. The media can then be removed and the cells treated with 80 μL cell-lysis buffer (MSD) containing a cocktail of protease and phosphatase inhibitors for one hour at 4° C.
25 μL Cell lysate can then be transferred to pre-blocked MSD assay plates pre-coated with a capture antibody specific for Akt, and the plates can be incubated for 2 hours at room temperature. The cell lysates can then be removed and plates can then be washed four times with 200 μl per well of Tris wash buffer (500 mM Tris, PH 7.5, 1.5 M NaCl, 0.2% Tween-20). Subsequently cells can be incubated for 1 hour at room temperature with a 25 μL solution containing the detection antibody, anti-phospho Akt (Ser 473) labeled with an electrochemiluminescent compound (Meso Scale Discovery SULPHO-TAG™ label, MSD, Gaithersburg, Md.). The detection antibody can be removed and plates can then be washed four times with 200 μL per well of Tris wash buffer. An aliquot of 150 μL of diluted MSD read buffer can then be applied to each well, and the electrochemiluminescent signal can be measured using a MSD SECTOR™ plate reader (Meso Scale Discovery, Gaithersburg, Md.). This instrument measures the intensity of emitted light to determine a quantitative measure of phosphorylated Akt in each well. The dose-response data obtained with each compound can be analyzed and the IC50 inhibition of Akt phosphorylation at Ser473 can be calculated.

PI3Kα = target: T1, PI3Kα (Homo sapiens, UniProt P42336); test: In vitro PI3 kinase enzyme assay (PI3K ATPLoss); format: biochemical; settings: recombinant p110α/p85, residual ATP by bioluminescence
T1 construct: Full length p110 subunits of PI3K α, β and δ, N-terminally labeled with polyHis tag; polyHis (N); made in house; host or cells: Sf9 insect cells (baculovirus)
Procedure: Full length p110 subunits of PI3K α, β and δ, N-terminally labeled with polyHis tag, can be co-expressed with p85 with Baculo virus expression vectors in sf9 insect cells. P110/p85 heterodimers can be purified by sequential Ni-NTA, Q-HP, Superdex-100 chromatography. Purified α, β and δ isozymes can be stored at −20° C. in 20 mM Tris, pH 8, 0.2M NaCl, 50% glycerol, 5 mM DTT, 2 mM Na cholate. Truncated PI3Kγ, residues 114-1102, N-terminally labeled with polyHis tag, can be expressed with Baculo virus in Hi5 insect cells. The γ isozyme can be purified by sequential Ni-NTA, Superdex-200, Q-HP chromatography. The γ isozyme can be stored frozen at −80° C. in NaH2PO4, pH 8, 0.2M NaCl, 1% ethylene glycol, 2 mM β-mercaptoethanol.
PI3K enzyme assays (alpha, beta, delta and gamma) can be performed in 25 μL with the above final concentrations of components in white polyproplyene plates. Phosphatidyl inositol phosphoacceptor, PtdIns(4,5)P2 (e.g. P4508) can be obtained from Echelon Biosciences, Salt Lake City, Utah. The ATPase activity of the alpha and gamma isozymes may not be greatly stimulated by PtdIns(4,5)P2 under these conditions, it can be omitted from the assay of these isozymes. Test compounds can be dissolved in DMSO and diluted with three-fold serial dilutions. The compound in DMSO (1 μL) may be added per test well, and the inhibition relative to reactions containing no compound, with and without enzyme can be determined. After assay incubation at RT, the reaction can be stopped and residual ATP can be determined by addition of an equal volume of a commercial ATP bioluminescence kit (Perkin Elmer EasyLite, Perkin Elmer, Waltham, Mass.) according to the manufacturer's instructions, and detected using an Analyst GT luminometer.

[2] = tested on: phosphorylation of Akt at Serine 473 in U87 MG cells; test: pAkt AlphaScreen (U87 Cell); format: cell-based; settings: Homo sapiens, U-87 MG, 2 h, 2 h compound, pAkt Ser473 AlphaScreen
Procedure: The pAkt AlphaScreen® assay (PerkinElmer, Waltham, Mass.) determines whether there is phosphorylation of Akt at Serine 473 by recruitment of a phosphospecific antibody. This assay was performed using U87 MG cells. The U87 growth media consists of MEM (Gibco, Carlsbad, Calif.) supplemented with 10% FBS (Gibco), 1× Non-Essential Amino Acids (Gibco) and 1× Penicillin/Streptomycin/Glutamine (Gibco). The cells were maintained weekly using 0.05% Trypsin (Gibco) and replated in 150 mm TC-Treated Culture Dishes (Corning, Corning, N.Y.).
The first day of the assay, the adherent cells were trypsinized, media was added to the loose cells and cells were mixed to a homogenous mixture. 0.5 ml of the homogenous mixture was counted on the Beckman Coulter® Vi-CELL™ XR (Fullerton, Calif.). 50 frames of cells were counted and the number of viable cells was determined. The cells were then diluted to 0.25 million cells per ml, and centrifuged at 200 rcf for 5 minutes. The media was removed and the cells were reconstituted in fresh media for plating. The cells were plated at 20 μl per well on the PerkinElmer® Flexprop PLUS in Low Volume 384 Well White Tissue Culture Plates (Corning) with a final cell density of 5K cells per well. The plates were incubated overnight at 37° Celsius, 5% CO2.
On the second day, the compound plates were prepared, the cells were treated with compound and the pAkt reaction mix was added to the cell lysate. 384 well compound plates were prepared containing 1 μl of compound per well starting at 5 mM and diluted 1:2 across the row, resulting in a 22 well serial dilution. 39 μl of growth media was added to the compound plate in rows 1-22 using the PerkinElmer® FlexDrop PLUS resulting in a DMSO concentration of 2.5%. The cell plates and diluted compound plates were put onto the VELOCITY11™ VPREP™ 384 ST where the compound plate was mixed and 5 μl of serially diluted compound or controls was added to the cell plate. The final concentration of the compounds was 25 μM serially diluted to 11.9 pM in 0.5% DMSO. The cell plates were then incubated with compound for two hours at 37° Celsius, 5% CO2. After two hours, the media in the cell plates was aspirated using the BioTek® ELx405HT plate washer (Winooski, Vt.) removing the majority of media and compound without disturbing the adherent U87 cells. The following assay reagents are components of the SureFire® Akt (Ser 473) Phosphorylation 50K Point Kit (TGR BioSciences, Adelaide, Australia) and an IgG Detection Kit (PerkinElmer, Waltham, Mass.). 5 μl of 1× Lysis Buffer was added to each well using the PerkinElmer® FlexDrop PLUS. The plates were then incubated at room temperature on a shaker for ten minutes. The AlphaScreen® reaction was prepared under low light conditions (subdued or green light) including p-Akt (Ser 473) Reaction Buffer, Dilution Buffer, Activation Buffer, Acceptor Beads and Donor Beads at a ratio of 40:20:10:1:1 respectively. The AlphaScreen® reaction was added to the cell lysate at 6 μl per well using the PerkinElmer® FlexDrop PLUS. The plates were placed in a humid environment to reduce edge effects and incubated overnight at room temperature with restricted air flow in the dark.
On the final day of the experiment, the plates were read on the PerkinElmer® EnVision™ 2103 Multilable Reader using the standard AlphaScreen® readout. The POC is calculated and the data is analyzed to report the IC50 IP for pAkt at Serine 473.

T1 sequence (P42336 whole entry, species assumed): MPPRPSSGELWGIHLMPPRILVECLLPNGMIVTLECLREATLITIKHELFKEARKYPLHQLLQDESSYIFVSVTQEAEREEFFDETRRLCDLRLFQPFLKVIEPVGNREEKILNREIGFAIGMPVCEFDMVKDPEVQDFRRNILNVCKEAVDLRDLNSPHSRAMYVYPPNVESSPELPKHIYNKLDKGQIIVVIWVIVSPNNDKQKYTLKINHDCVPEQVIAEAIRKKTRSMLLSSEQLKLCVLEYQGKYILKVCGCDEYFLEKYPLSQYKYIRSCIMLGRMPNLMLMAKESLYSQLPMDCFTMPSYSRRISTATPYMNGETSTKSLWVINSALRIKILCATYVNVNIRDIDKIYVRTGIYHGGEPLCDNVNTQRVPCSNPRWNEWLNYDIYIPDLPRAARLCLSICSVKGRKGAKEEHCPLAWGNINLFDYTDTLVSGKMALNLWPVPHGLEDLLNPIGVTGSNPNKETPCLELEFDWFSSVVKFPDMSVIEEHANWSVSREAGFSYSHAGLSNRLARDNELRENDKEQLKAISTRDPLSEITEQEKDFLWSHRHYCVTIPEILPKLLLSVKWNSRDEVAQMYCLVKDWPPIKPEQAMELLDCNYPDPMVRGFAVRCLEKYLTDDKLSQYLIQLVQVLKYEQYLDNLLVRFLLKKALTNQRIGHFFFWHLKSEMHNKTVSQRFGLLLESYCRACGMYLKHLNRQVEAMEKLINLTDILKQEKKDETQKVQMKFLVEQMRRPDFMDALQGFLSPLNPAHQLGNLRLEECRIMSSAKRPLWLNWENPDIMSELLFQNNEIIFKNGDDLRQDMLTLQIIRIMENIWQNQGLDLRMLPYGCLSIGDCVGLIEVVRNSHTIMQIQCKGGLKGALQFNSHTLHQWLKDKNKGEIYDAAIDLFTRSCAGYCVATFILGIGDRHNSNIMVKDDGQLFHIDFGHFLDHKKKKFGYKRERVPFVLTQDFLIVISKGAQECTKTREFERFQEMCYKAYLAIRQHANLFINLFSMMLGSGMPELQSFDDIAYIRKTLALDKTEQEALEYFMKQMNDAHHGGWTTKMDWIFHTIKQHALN
T1 sequence (P27986 whole entry partner, species assumed): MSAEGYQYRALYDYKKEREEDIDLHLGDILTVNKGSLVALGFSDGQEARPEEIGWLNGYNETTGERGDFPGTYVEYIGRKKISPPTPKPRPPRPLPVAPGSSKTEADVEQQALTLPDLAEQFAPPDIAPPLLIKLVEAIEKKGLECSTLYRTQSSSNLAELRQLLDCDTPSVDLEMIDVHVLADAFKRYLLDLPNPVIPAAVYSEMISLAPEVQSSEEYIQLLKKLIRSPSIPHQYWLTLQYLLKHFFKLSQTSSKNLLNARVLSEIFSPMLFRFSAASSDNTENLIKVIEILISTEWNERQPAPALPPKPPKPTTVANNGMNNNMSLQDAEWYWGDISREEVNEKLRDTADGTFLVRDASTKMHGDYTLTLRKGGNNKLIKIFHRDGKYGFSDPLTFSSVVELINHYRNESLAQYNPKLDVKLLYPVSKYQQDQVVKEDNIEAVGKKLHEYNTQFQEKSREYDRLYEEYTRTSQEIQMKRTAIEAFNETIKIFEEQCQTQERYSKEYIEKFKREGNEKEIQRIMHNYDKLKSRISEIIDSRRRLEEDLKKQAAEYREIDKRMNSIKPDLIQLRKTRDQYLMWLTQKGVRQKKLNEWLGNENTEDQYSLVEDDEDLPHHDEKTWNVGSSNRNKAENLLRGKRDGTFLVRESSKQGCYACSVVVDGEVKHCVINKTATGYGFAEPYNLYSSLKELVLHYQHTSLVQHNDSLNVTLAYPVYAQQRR

Row | Compound | IC50 [1] | IC50 (PI3Kα) | IC50 [2]
1 | CNC(C)c1ccc(S(=O)(=O)Nc2cc(-c3ccc4nc(NC(C)=O)cn4n3)cnc2Cl)cc1 (racemic) [Example 37, N-(6-(6-chloro-5-(4-(1-(methylamino)ethyl)phenylsulfonamido)pyridin-3-yl)imidazo[1,2-b]pyridazin-2-yl)acetamide] | 244 nM | 7 nM | 
2 | CNC(C)c1ccc(S(=O)(=O)Nc2cc(-c3ccc4nc(NC(C)=O)cn4n3)cnc2Cl)cc1 (single isomer, unassigned) [Example 38, N-(6-(6-chloro-5-(4-(1-(methylamino)ethyl)phenylsulfonamido)pyridin-3-yl)imidazo[1,2-b]pyridazin-2-yl)acetamide] | 124 nM | 6 nM | 31 nM
3 | CC(=O)Nc1cn2nc(-c3cccc(NS(=O)(=O)c4ccc(C)cc4)c3)ccc2n1 [Example 1, N-(6-(3-(4-Methylphenylsulfonamido)phenyl)imidazo[1,2-b]pyridazin-2-yl)acetamide] | 214 nM | 55 nM | 
4 | CC(=O)Nc1cn2nc(-c3cccc(N(C)S(=O)(=O)c4ccc(C)cc4)c3)ccc2n1 [Example 2, N-(6-(3-(N,4-Dimethylphenylsulfonamido)phenyl)imidazo[1,2-b]pyridazin-2-yl)acetamide] | 462 nM | 98 nM | 
5 | CC(=O)Nc1cn2nc(-c3ccnc(Sc4ccccc4F)c3)ccc2n1 [Example 4, N-(6-(2-(2-Fluorophenylthio)pyridin-4-yl)imidazo[1,2-b]pyridazin-2-yl)acetamide] | 1140 nM | 77 nM | 
6 | CC(=O)Nc1cn2nc(-c3cccc(NS(=O)(=O)c4cccc5ccccc45)c3)ccc2n1 [Example 7, N-(6-(3-(Naphthalene-1-sulfonamido)phenyl)imidazo[1,2-b]pyridazin-2-yl)acetamide] | 456 nM | 62 nM | 
7 | CSc1cncc(-c2ccc3nc(NC(C)=O)cn3n2)c1 [Example 8, N-(6-(5-(Methylthio)pyridin-3-yl)imidazo[1,2-b]pyridazin-2-yl)acetamide] | 1200 nM | 60 nM | 
8 | CC(=O)Nc1cn2nc(-c3cncc(S(C)(=O)=O)c3)ccc2n1 [Example 10, N-(6-(5-(Methylsulfonyl)pyridin-3-yl)imidazo[1,2-b]pyridazin-2-yl)acetamide] | 869 nM | 104 nM | 
9 | CC(=O)Nc1cn2nc(-c3cncc(NS(=O)(=O)c4ccc(F)cc4)c3)ccc2n1 [Example 11, N-(6-(5-(4-Fluorophenylsulfonamido)pyridin-3-yl)imidazo[1,2-b]pyridazin-2-yl)acetamide] | 213 nM | 6 nM | 
10 | COc1ccc(S(=O)(=O)N(C)c2nccc(-c3ccc4nc(NC(C)=O)cn4c3)n2)cc1 [Example 13, N-(6-(2-(4-Methoxy-N-methylphenylsulfonamido)pyrimidin-4-yl)H-imidazo[1,2-a]pyridin-2-yl)acetamide] | 847 nM | 146 nM | 
11 | CC(=O)Nc1cn2cc(-c3cncc(NS(=O)(=O)c4ccc(F)cc4)c3)ccc2n1 [Example 15, N-(6-(5-(4-Fluorophenylsulfonamido)pyridin-3-yl)H-imidazo[1,2-a]pyridin-2-yl)acetamide] | 975 nM | 10 nM | 
12 | CC(=O)Nc1cn2cc(-c3cncc(NS(=O)(=O)C4CC4)c3)ccc2n1 [Example 16, N-(6-(5-(Cyclopropanesulfonamido)pyridin-3-yl)H-imidazo[1,2-a]pyridin-2-yl)acetamide] | 14400 nM | 19 nM | 
13 | CC(=O)Nc1cn2cc(-c3cncc(NS(C)(=O)=O)c3)ccc2n1 [Example 17, N-(6-(5-(Methylsulfonamido)pyridin-3-yl)H-imidazo[1,2-a]pyridin-2-yl)acetamide] | 29300 nM | 37 nM | 
14 | CS(=O)(=O)Nc1cc(-c2ccc3nc(N)c(-c4ccncc4)n3n2)cnc1Cl [Example 27, N-(5-(2-Amino-3-(pyridin-4-yl)imidazo[1,2-b]pyridazin-6-yl)-2-chloropyridin-3-yl)methanesulfonamide] |  | 154 nM | 3500 nM
15 | CC(=O)Nc1nc2cc(-c3cnc(Cl)c(NS(=O)(=O)c4ccc(F)cc4)c3)ccc2[nH]1 [Example 30, N-(5-(6-Chloro-5-(4-fluorophenylsulfonamido)pyridin-3-yl)-1H-benzo[d]imidazol-2-yl)acetamide] | 1100 nM | 12 nM | 
16 | Nc1nc2ccc(-c3cnc(Cl)c(NS(=O)(=O)c4ccc(F)cc4)c3)cc2n1-c1ccccn1 [Example 31, N-(5-(2-Amino-1-(pyridin-2-yl)-1H-benzo[d]imidazol-6-yl)-2-chloropyridin-3-yl)-4-fluorobenzenesulfonamide] | 868 nM | 8 nM | 
17 | CC(=O)Nc1nc2ccc(-c3cnc(Cl)c(NS(=O)(=O)c4ccc(F)cc4)c3)cc2n1-c1ccccn1 [Example 32, N-(6-(6-Chloro-5-(4-fluorophenylsulfonamido)pyridin-3-yl)-1-(pyridin-2-yl)-1H-benzo[d]imidazol-2-yl)acetamide] | 2720 nM | 49 nM | 
18 | CC(=O)Nc1cn2nc(-c3cnc(Cl)c(NS(=O)(=O)c4ccc(C)cc4)c3)ccc2n1 [Example 42, N-(6-(6-Chloro-5-(4-methylphenylsulfonamido)pyridin-3-yl)imidazo[1,2-b]pyriadazin-2-yl)acetamide] |  | 6 nM | 5 nM
19 | COc1ccc(-c2ccc3nc(NC(C)=O)cn3n2)cc1OC [Example 43, N-(6-(3,4-Dimethoxyphenyl)imidazo[1,2-b]pyridazin-2-yl)acetamide] |  | 44 nM | 242 nM
20 | CC(=O)Nc1cn2nc(-c3cc(NS(=O)(=O)c4ccc(F)cc4)c(Cl)nn3)ccc2n1 [Example 52, N-(6-(6-Chloro-5-(4-fluorophenylsulfonamido)pyridazin-3-yl)imidazo[1,2-b]pyridazin-2-yl)acetamide] |  | 691 nM | 523 nM
